According to PubChem BioAssay (NCI):
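These data come from cells grown in 96-well plates and exposed to compound for 48 hours at five concentrations. GI50 marks 50% less growth. TGI denotes the concentration required for complete inhibition of growth.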

What was measured:
Experiment in all cases: NCI-60 cell line screen, 48 h
HOP-92 NSCLC = test system: HOP-92 NSCLC
M14 melanoma = test system: M14 melanoma
OVCAR-4 ovarian = test system: OVCAR-4 ovarian
UACC-257 melanoma = test system: UACC-257 melanoma
SNB-75 CNS = test system: SNB-75 CNS
SK-MEL-28 melanoma = test system: SK-MEL-28 melanoma
SF-539 CNS = test system: SF-539 CNS
COLO 205 colon = test system: COLO 205 colon
K-562 leukemia = test system: K-562 leukemia
SW-620 colon = test system: SW-620 colon
A498 renal = test system: A498 renal

SMILES	TGI (HOP-92 NSCLC)	TGI (M14 melanoma)	TGI (OVCAR-4 ovarian)	TGI (UACC-257 melanoma)	TGI (SNB-75 CNS)	TGI (SK-MEL-28 melanoma)	TGI (SF-539 CNS)	TGI (COLO 205 colon)	TGI (K-562 leukemia)	TGI (SW-620 colon)	TGI (A498 renal)	GI50 (SK-MEL-28 melanoma)
COc1cc(C2CC(C)(Nc3ccccc3)Oc3cc4c(cc32)OCO4)cc(OC)c1OC (stereo unspecified)	> 100 µM	> 63.1 µM	> 78.5 µM	> 85.2 µM	> 100 µM	> 100 µM	0.477 µM	5.27 µM	> 100 µM	> 100 µM	> 100 µM	–
O=C(c1cc2ccccc2cc1O)N1CCCCC1	43.3 µM	64.9 µM	> 100 µM	> 100 µM	> 100 µM	> 100 µM	> 100 µM	> 100 µM	48.6 µM	> 100 µM	63.2 µM	–
C(=N\NC1=NCCCN1)/c1ccc2ccccc2c1	25.1 µM	22.1 µM	39.3 µM	42.5 µM	18.4 µM	31.9 µM	31.1 µM	19.3 µM	12.6 µM	28.4 µM	20.8 µM	–
O=c1oc(-c2ccc(O)c(O)c2)cc2cccc(O)c12	43.4 µM	51.8 µM	69.2 µM	61.3 µM	> 100 µM	87.3 µM	> 85.6 µM	> 48.3 µM	49.2 µM	78.2 µM	42.4 µM	24.6 µM
CC1CC[C@@]2(OC1)OC1C[C@H]3[C@@H]4CC[C@H]5CC(OC6OC(CO)C(OC7OC(CO)C(O)C(O)C7OC7OC(CO)C(O)C(O)C7O)C(O)C6O)CCC5(C)[C@H]4CCC3(C)C1[C@@H]2C (stereo partly specified)	11.8 µM	10.4 µM	2.72 µM	11.6 µM	4.81 µM	8.32 µM	2.92 µM	1.77 µM	9.01 µM	1.94 µM	4.08 µM	–
Brc1cccc(Nc2nc(-c3cccs3)nc3ccc(Br)cc23)c1	> 100 µM	71.3 µM	> 100 µM	74 µM	> 100 µM	> 100 µM	> 100 µM	> 100 µM	> 100 µM	> 100 µM	> 100 µM	–
COc1ccc(C2(CC(C)O)SCCCS2)cc1 (stereo unspecified)	> 100 µM	> 100 µM	> 100 µM	> 100 µM	> 100 µM	> 100 µM	> 100 µM	> 100 µM	> 100 µM	> 100 µM	> 100 µM	–
C=CCNC(=S)/N=C/c1c(O)c2ccccc2oc1=O	> 100 µM	> 100 µM	> 100 µM	> 100 µM	> 100 µM	> 100 µM	> 100 µM	> 100 µM	> 100 µM	> 100 µM	> 100 µM	–
Cc1c(S(=O)(=O)/N=C(\N)Nc2ccc(Cl)cc2)sc2ccc(Cl)cc12	42.2 µM	37.9 µM	68.8 µM	40.4 µM	43.5 µM	48.5 µM	> 100 µM	45.9 µM	> 100 µM	58.1 µM	30.1 µM	–
C=CCn1c(=O)ccn(COCCO)c1=O	> 100 µM	> 100 µM	> 100 µM	> 100 µM	> 100 µM	> 100 µM	> 100 µM	> 100 µM	> 100 µM	> 100 µM	> 100 µM	–
CCOC(=O)c1c(-c2ccc(OC)cc2)c(C#N)c(=S)n(C2OC(COC(C)=O)C(OC(C)=O)C(OC(C)=O)C2OC(C)=O)c1C (stereo unspecified)	83.4 µM	> 100 µM	92.2 µM	> 100 µM	91 µM	> 100 µM	> 100 µM	> 100 µM	> 100 µM	> 100 µM	> 100 µM	–
O=C(NCCCN(CCCCN(CCCNC(=O)C(F)(F)F)Cc1ccccc1)Cc1ccccc1)C(F)(F)F	38.1 µM	12.1 µM	68.1 µM	16.9 µM	27.9 µM	25.1 µM	26.3 µM	26.8 µM	30.6 µM	34.2 µM	72.2 µM	–
c1ccc2c(c1)NC(C1OC3CCCN3C1C1Nc3ccccc3S1)S2 (stereo unspecified)	> 100 µM	> 100 µM	> 100 µM	> 100 µM	> 100 µM	> 100 µM	> 100 µM	> 100 µM	> 100 µM	> 100 µM	> 100 µM	–
O=C1C[C@H](Sc2ccccc2)C2(OCCO2)[C@@H](Sc2ccccc2)C1	5.74 µM	6.52 µM	28.4 µM	4.51 µM	26 µM	10.4 µM	4.05 µM	15.4 µM	0.673 µM	10.4 µM	> 66.7 µM	–
Oc1ccccc1/C=N/c1nc2cc3sc(/N=C/c4ccccc4O)nc3cc2s1	> 100 µM	> 100 µM	> 100 µM	> 100 µM	> 100 µM	> 100 µM	> 100 µM	20.7 µM	> 100 µM	> 100 µM	> 100 µM	–
